From patent US20100279935A1, “COMPOSITIONS FOR INDUCING LABOR AND ASSOCIATED METHODS” (priority 2007, published 2010)
Entries after “also recorded” stand apart in the source; their conditions may differ.

Columns and labels:
Type in all cases: cell-based, human
[1] = test system: myosin light chain phosphorylation (Ser19) in hTERT cells; experiment: Western blot for phosphorylated myosin light chain at Ser19
Method: (§1) Telomerase immortalized myometrial cells (hTert) were maintained in DMEM/F12 (Mediatech) medium with 10% FBS (Hyclone) with penicillin/streptomycin and gentamycin at 37° C. and 5% CO2. Cells were trypsinized at 90% confluency and plated in T175 cell culture flasks at a 1:5 dilution or 6 well plates at 20,000 cells per well. For pharmacological experiments cells were treated with iodo-melatonin (Tocris; USA), oxytocin (Sigma-Aldrich; USA) or cotreated as described in the Results. Pharmacological inhibitors, 4-phenyl-2-propionamidotetralin (4P-PDOT), a MT2R specific antagonist, the general PKC inhibitor C1, and the phospholipase C inhibitor, U73122 (all from Tocris) were applied as a pretreatment 1 hr prior to application of IMEL or OT. After treatment the cells were trypsinized, pelleted, washed in phosphate-buffered saline, and frozen at −20° C. until further analysis.
For in vitro investigations cultured hTERT cells were collected by trypsinization and gentle scraping. Cells were suspended in PBS and pelleted by centrifugation. Protein extraction was performed according to the method of Shearman and colleagues^15. Following electrophoretic separation on a 10% SDS-polyacrylamide gel, proteins were semi-dry blotted in buffer onto a Whatman PROTRAN Nitrocellulose membrane (Whatman; Germany). Molecular size markers (Amersham) were included. The membrane was incubated for 60 min at 20° C. in blocking buffer containing 5% milk powder before overnight incubation at 4° C. with anti-OTR, anti-MT2R (Santa Cruz Biotechnology), anti-Cx43 antiserum (Millipore) or anti-actin (Sigma) at a dilution of 1:1000 in blocking buffer. Following washing in buffer (20 mM Tris, pH 7.6+[…] NaCl+0.05% Tween-20), the membrane was incubated at 20° C. for 1 h with a peroxidase-conjugated affinity purified goat anti-rabbit immunoglobulin (Sigma) in a 1:2000 dilution. Chemiluminescent signals were then detected with the Pierce ECL Western Blotting Substrate (Pierce; USA) using CL-X Posure film (Pierce). Western blotting for phospho-myosin light chain kinase (Ser19) (Millipore) was performed with the following exceptions. Membranes were blocked with a 5% BSA/TBS solution for one hour. The primary antibody was diluted in TBS at a 1:500 dilution at 4° C. overnight with shaking. The goat anti-rabbit immunoglobulin was diluted 1:2000 in a 5% milk/TBST solution. Densitometric analysis was performed using AIS Image Analysis software (Ontario, Canada) of images acquired with a digital camera. Criterion for assessment of samples as immunonegative was the absence of a band after 1 hr of exposure. Western blots were repeated a minimum of three times to insure reproducibility.

[2] = test system: hTERT myometrial smooth muscle cells; experiment: Myometrial cell contractility assay (collagen disk retraction); conditions: for effect of inhibitor on contractility of cells treated with OT, I-MEL or both: pretreatment 1 hr, 4P-PDOT 10 nM, C1 10 μM, U73122 concentration not given
Method: as §1
Myometrial cell contractility was assayed using a collagen disk retraction assay as described by Devost and Zingg^16 plating 10,000 hTERT cells per well. Samples were treated as described in the Results and each treatment was performed in triplicate. Myometrial cell contractility was quantified by capturing images of the fixed collagen disks with a digital camera and analyzing for total area using AIS Image Analysis Software (Ontario, Canada). The results were normalized to the cell-free control sample areas and expressed as a percentage of untreated control area.

[3] = test system: connexin 43 mRNA in hTERT cells; experiment: Quantitative PCR of Cx43 mRNA; conditions: for effect of inhibitor on I-MEL-induced Cx43 expression: co-treatment with I-MEL (FIG. 3C)
Method: as §1
Cellular total RNA was extracted with the RNEasy® kit (QIAGEN; Valencia, Calif., USA) according to the manufacturer's protocol. The RNA concentration was measured with the Nanodrop® photometer and then reverse transcribed to cDNA by means of the iScript® reverse transcription system (Bio-Rad Laboratories; USA). Quantitative real-time PCR was performed on a Bio-Rad iCycler® using iQ SYBR Green Supermix® (Bio-Rad), together with 1 μl of sense and antisense primers ([…]) of the transcript of interest and 2 μl of template cDNA. The following thermal cycling parameters were used: initial heat activation of the DNA-polymerase was performed at 95° C. for 5 min. Thereafter 40 cycles at 95° C. (15 sec), 58° C. (30 sec), and 72° C. (30 sec) were run. After thermocycling the iCycler performs an automatic melting curve, which entails cooling to 55° C. for 10 sec and then increasing temperatures in 0.2° C. increments up to 90° C. This controls for primer-dimer formation and other nonspecific effects. Quantification of the data was achieved by the Bio-Rad iCycler software using a standard curve from a primer-specific dilution series for the PCR product. Data were normalized against expression of the housekeeping gene glyceraldehyde-3-phosphate dehydrogenase (GAPDH). The primer sequences used for Cx43, and GAPDH quantification are as follows: […]

[4] = test system: gap junction communication in hTERT cells; experiment: Lucifer yellow dye migration (scrape loading) assay
Method: Lucifer yellow scrape loading assays were performed in accordance with the procedures of El-Fouly et al^17. Cells were grown to confluency in […] cell culture dishes, washed with warm phosphate buffered saline (PBS) and treated with 2 mL of pre-warmed 0.05% lucifer yellow in PBS solution. The cells were then scraped by drawing a scalpel across the plate. After two minutes at room temperature the plates were washed three times with prewarmed PBS and returned to normal medium. The plates were then photographed at 10 minutes after scraping using a digital camera through a Zeiss Axiovert 40CFL Microscope at a 100× and 200× magnification. Each treatment condition was repeated three times to ensure reproducibility.

[5] = test system: connexin 43 protein in hTERT cells; experiment: Western blot of Cx43 protein; conditions: I-MEL-treated hTERT cells (FIG. 3B)
Method: as §1
For in vitro investigations cultured hTERT cells were collected by trypsinization and gentle scraping. Cells were suspended in PBS and pelleted by centrifugation. Protein extraction was performed according to the method of Shearman and colleagues^15. […] Chemiluminescent signals were then detected with the Pierce ECL Western Blotting Substrate (Pierce; USA) using CL-X Posure film (Pierce). […]

How did the “myosin light chain phosphorylation, OT treatment” value ([1]; OT, hTERT cells (FIG. 2D)) turn out when `CC[C@H](C)[C@@H]1NC(=O)[C@H](Cc2ccc(O)cc2)NC(=O)[C@@H](N)CSSC[C@@H](C(=O)N2CCC[C@H]2C(=O)N[C@@H](CC(C)C)C(=O)NCC(N)=O)NC(=O)[C@H](CC(N)=O)NC(=O)[C@H](CCC(N)=O)NC1=O` [OT, oxytocin] was run?
The value was “increases”.

For `COc1ccc2c(c1)CC[C@@H]1[C@@H]2CC[C@]2(C)[C@@H](NCCCCCCN3C(=O)C=CC3=O)CC[C@@H]12` [U73122], which “effect of inhibitor on contractility of cells treated with OT, I-MEL or both” value [2] is on record?
The value was “completely abolished contractility”.

And the “effect of inhibitor on I-MEL-induced Cx43 expression” value [3]?
Its value is “abolished the effect of I-MEL on Cx43 expression”.

With `CCC(=O)NC1Cc2ccccc2C(c2ccccc2)C1` (centres unmarked) [4P-PDOT, 4-phenyl-2-propionamidotetralin] as the compound, how does the “effect of inhibitor on contractility of cells treated with OT, I-MEL or both” value [2] read?
The value was “reduced the synergistic effect of I-MEL to levels corresponding to treatment with OT alone”.

And the “effect of inhibitor pretreatment on I-MEL-induced myosin light chain phosphorylation” value ([1]; 10 nM 4P-PDOT or 10 μM C1 pretreatment)?
The value was “abolished”.

What about the “effect of inhibitor on I-MEL-induced Cx43 expression” value [3] of the same compound?
Its value is “abolished the effect of I-MEL on Cx43 expression”.

What about the “effect of inhibitor pretreatment on I-MEL-increased dye spread” value ([4]; 10 nM 4P-PDOT or 10 μM C1 before I-MEL) of the same compound?
The value was “blocked”.

What about the “dye migration, inhibitor alone” value ([4]; 4P-PDOT or C1 alone, data not shown) of the same compound?
Its value is “dye migration comparable to control levels”.

What does the source list for `COc1ccc2[nH]c(I)c(CCNC(C)=O)c2c1` [I-MEL, iodo-melatonin]?
increase in contractility compared to treatment with OT alone ([2]; co-treatment 1 nM I-MEL and 1 nM OT, hTERT cells): two-fold; contractility by I-MEL alone ([2]; hTERT cells, I-MEL without OT): modest increases in hTERT contractility; effect of I-MEL on OT-induced contractility and sensitivity to OT ([2]; hTERT cells, OT co-treated with I-MEL (FIG. 2A)): increase OT-induced contractility in a dose dependent manner; effect of I-MEL on OT-induced myosin light chain phosphorylation ([1]; 1 nM I-MEL with OT, hTERT cells (FIG. 2D)): increased dramatically; myosin light chain phosphorylation, I-MEL treatment alone ([1]; 1 nM I-MEL, hTERT cells (FIG. 2D)): modest increases in myosin light chain phosphorylation; Cx43 mRNA levels after 4 hrs ([3]; 1 nM I-MEL, 4 hrs, hTERT cells): significant, but transient increases; also recorded: elevated; Cx43 mRNA levels after 8 hrs ([3]; 1 nM I-MEL, 8 hrs, hTERT cells): returned to untreated levels; Cx43 protein levels [5]: upregulation of Cx43 protein levels; cell coupling / spread of lucifer yellow dye ([4]; 1 nM I-MEL pretreated hTERT cells, 10 minutes after scrape loading): increased levels of cell coupling
